Values of other authors as cited in US20100210719A1, “O-DESMETHYLVENLAFAXINE” (DR. REDDY'S LABORATORIES LTD., priority 2007, published 2010).

Details: inferred from the major DSC endotherm at about 120° C. and Tg onset at 18° C. reported in U.S. Pat. No. 6,673,838

stability of the amorphous form: highly unstable
Compound: CN(C)CC(c1ccc(O)cc1)C1(O)CCCCC1 (stereo not shown) [desvenlafaxine succinate]
